These results are taken from patent US9409880B2, “Modulators of TLR3/dsRNA complex and uses thereof” (The Regents of the University of Colorado, a body corporate, priority 2011, dated 2016).

In assay [1] the target is T1, TLR3 (Mus musculus, UniProt Q99MB1).
T1 construct: endogenous in cells; host or cells: RAW 264.7
T1 sequence (Q99MB1 26-905): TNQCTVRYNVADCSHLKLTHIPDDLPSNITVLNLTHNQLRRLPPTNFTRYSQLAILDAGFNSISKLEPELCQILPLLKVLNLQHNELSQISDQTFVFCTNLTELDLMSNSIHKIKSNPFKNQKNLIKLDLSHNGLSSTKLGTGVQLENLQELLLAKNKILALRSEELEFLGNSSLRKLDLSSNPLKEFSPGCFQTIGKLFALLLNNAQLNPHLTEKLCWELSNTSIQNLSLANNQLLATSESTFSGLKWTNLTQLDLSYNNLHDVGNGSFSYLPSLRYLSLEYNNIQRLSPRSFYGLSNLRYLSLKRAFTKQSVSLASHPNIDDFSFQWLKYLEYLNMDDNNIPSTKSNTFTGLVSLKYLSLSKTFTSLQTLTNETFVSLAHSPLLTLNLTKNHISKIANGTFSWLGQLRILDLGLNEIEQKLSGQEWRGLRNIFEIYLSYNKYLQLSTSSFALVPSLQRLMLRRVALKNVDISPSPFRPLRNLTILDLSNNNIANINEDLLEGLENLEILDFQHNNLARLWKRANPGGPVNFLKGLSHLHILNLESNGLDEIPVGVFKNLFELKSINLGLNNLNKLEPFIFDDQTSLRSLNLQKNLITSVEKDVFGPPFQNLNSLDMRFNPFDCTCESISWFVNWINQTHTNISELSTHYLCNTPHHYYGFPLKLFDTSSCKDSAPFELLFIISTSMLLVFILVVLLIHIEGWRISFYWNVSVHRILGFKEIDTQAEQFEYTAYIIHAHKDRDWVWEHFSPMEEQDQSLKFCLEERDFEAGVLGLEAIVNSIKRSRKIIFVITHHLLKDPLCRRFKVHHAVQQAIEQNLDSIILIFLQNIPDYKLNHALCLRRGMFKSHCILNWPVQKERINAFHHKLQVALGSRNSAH
Put plainly: In vitro TLR3 inhibition assay: Poly IC-induced NO production in RAW 264.7 cells. Type of assay: cell-based. From the text:
The initial hits (Figure A) were first evaluated using the present inventors' previously established high-throughput cell assay of TLR3 activation. See, for example, ACS Med. Chem. Lett. 2010, 1, 194 and Bioorg. Med. Chem. Lett., 2010, 20, 5411. Poly IC (Polyriboinosinic:polyribocytidylic acid) has been reported to selectively activate TLR3 signaling, resulting in the activation of nitric oxide synthase and the production nitric oxide (NO) in RAW 264.7 macrophage cells. The NO level was monitored as an indicator of Poly IC-induced TLR3 activation to evaluate the drug's inhibitory activity.
RAW 264.7 (Mouse leukaemic monocyte macrophage cell line) cells were grown in RPMI 1640 medium, supplemented with 10% FBS, penicillin (100 U/mL) and streptomycin ([…]). RAW cells were then planted in 96-well plates at 100,000 cells per well and grown for 24 h in the media descried previously at 37° C. in a 5% CO2 humidified incubator. After 24 h, non-adherent cells and media were removed and replaced with fresh RPMI 1640 medium (only RPMI). The adherent macrophages were treated with high molecular weight polyinosine-polycytidylic acid (Poly IC) (10 μg/mL) (Invivogen), an agonist of TLR3, and then added different concentrates of potential inhibitor. Two rows were only treated with Poly IC as an control. Plates were then incubated for an additional 24 h. Following incubation 100 μL of media was removed and added to flat black 96-well microfluor plates (Thermo Scientific, MA, USA). To each well, 10 μL of 2,3-diaminonaphthalene (0.05 mg/mL in 0.62 M aqueous HCl solution) was added and incubated for 15 min in the dark. The reaction was quenched by addition of 5 μL of a 3 M aqueous NaOH solution and the plate was read on Beckman Coulter DTX880 reader (Beckman Coulter, Calif., USA) with excitation at 365 nm and emission at 450 nm. The nitrite (a stable metabolite of nitric oxide) concentration was determined from a nitrite standard curve. The inhibition rate (%) of NO release was determined using the following formula: Inhibition (%)=[Poly IC(OD450)−Compounds (OD450)]/[Poly IC(OD450)−Control (OD450)]×100. The IC50 values for both inhibition and cytotoxicity were determined graphically using software Origin v7.5.

Assay [2] addresses T2, TLR3 (Homo sapiens, UniProt O15455).
T2 construct: purchased R &D
T2 sequence (O15455 24-904): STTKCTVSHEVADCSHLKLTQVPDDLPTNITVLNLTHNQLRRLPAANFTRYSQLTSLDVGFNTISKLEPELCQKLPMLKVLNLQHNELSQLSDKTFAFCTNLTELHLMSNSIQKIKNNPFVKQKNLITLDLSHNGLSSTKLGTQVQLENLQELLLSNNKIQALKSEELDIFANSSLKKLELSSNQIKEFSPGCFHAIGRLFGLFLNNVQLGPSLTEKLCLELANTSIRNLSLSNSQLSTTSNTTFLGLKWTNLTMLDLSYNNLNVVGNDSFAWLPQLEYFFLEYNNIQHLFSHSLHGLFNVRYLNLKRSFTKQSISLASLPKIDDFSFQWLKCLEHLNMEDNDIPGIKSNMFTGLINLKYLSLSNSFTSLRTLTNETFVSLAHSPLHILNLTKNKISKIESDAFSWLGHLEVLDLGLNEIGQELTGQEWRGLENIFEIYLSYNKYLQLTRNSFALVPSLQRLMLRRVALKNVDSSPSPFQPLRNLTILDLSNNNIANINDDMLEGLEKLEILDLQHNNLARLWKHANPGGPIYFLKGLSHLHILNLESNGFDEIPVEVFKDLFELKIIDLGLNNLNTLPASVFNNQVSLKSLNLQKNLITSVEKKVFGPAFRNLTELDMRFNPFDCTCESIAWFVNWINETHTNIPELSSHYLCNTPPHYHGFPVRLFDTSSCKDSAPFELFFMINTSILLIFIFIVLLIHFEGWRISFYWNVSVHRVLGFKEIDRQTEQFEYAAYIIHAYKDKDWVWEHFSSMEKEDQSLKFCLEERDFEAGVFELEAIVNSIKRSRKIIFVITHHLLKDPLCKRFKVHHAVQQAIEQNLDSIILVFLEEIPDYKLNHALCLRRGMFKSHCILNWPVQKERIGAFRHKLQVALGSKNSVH
Put plainly: Fluorescence anisotropy assay, competition with Rhodamine labeled Poly IC. Type of assay: binding. As for the experimental part: The anisotropy of Rhodamine labeled Poly IC increased from approximately 0.116 to 0.171 upon addition of TLR3 (excitation=546 nm; emission=576 nm).
In 500 μL Tris buffer (pH=7.2) add 5 μL (1 μg/mL) Rhodamine labeled Poly IC (Invivogen), test the anisotropy at excitation of 546 nm and emission of 576 nm (Horiba Fluorolog 3). An addition 3 μL (20 μM) of TLR3 (R &D) was added in the buffer, then test the anisotropy again. Following, 4a was added in the buffer from 0 to 68 μM, and the fluorescence anisotropy was tested when the concentration was changed.
In general terms: Polarisation of emitted light reports the rotation of a fluorescent probe.

Where [3] appears, read: whole cell inhibitory activity, Poly IC-induced NO, RAW 264.7, average ± SD, at least three independent tests.
[4] abbreviates: whole cell inhibitory activity, second part of Table 1 (R5/R6 series).

As usually defined, the IC50 is the concentration needed to halve the response being measured. High values mean a need for much substance, low ones inhibition by little substance. The compound `O=C(N[C@H](Cc1ccccc1)C(=O)O)c1cc2ccccc2s1` [Compound 1a, (R)-2-(benzo[b]thiophene-2-carboxamido)-3-phenylpropanoic acid] displayed an IC50 in assay [1] (setting [3]) above 155 µM. The “TLR3 binding competition with dsRNA” value in assay [2] is given as “does not show any significant binding to TLR3”.
In assay [1] (setting [4]), `O=C(O)[C@@H](Cc1ccccc1)NS(=O)(=O)c1ccccc1F` [Compound 14a, (R)-2-(2-fluorophenylsulfonamido)-3-phenylpropanoic acid] came in with an IC50 above 100 µM.
In the case of `Cc1ccc2c(Cl)c(C(=O)N[C@H](Cc3ccccc3)C(=O)O)sc2c1` [Compound 2a, (R)-2-(3-chloro-6-methylbenzo[b]thiophene-2-carboxamido)-3-phenylpropanoic acid], in assay [1] (setting [3]), the IC50 amounted to 11.8 ± 1.3 µM.
Same read-out and setting: to `O=C(N[C@H](Cc1ccccc1)C(=O)O)c1sc2ccc(F)cc2c1Cl` [Compound 12a, (R)-2-(3-chloro-5-fluorobenzo[b]thiophene-2-carboxamido)-3-phenylpropanoic acid] belongs 47.3 ± 4.1 µM.
On the same count and under the same terms, then `O=C(N[C@@H](Cc1ccccc1)C(=O)O)c1cc2cc(F)ccc2s1` [Compound 10b, (S)-2-(5-fluorobenzo[b]thiophene-2-carboxamido)-3-phenylpropanoic acid], with above 100 µM.
`O=C(N[C@@H](Cc1ccccc1)C(=O)O)c1sc2ccc(F)cc2c1Cl` [Compound 12b, (S)-2-(3-chloro-5-fluorobenzo[b]thiophene-2-carboxamido)-3-phenylpropanoic acid] returned an IC50 in assay [1] (setting [3]) of 54.1 ± 5.7 µM.
Turning to `O=C(N[C@H](Cc1ccccc1)C(=O)O)c1cc2c(s1)CCCCC2` [Compound T5626448, reference compound], the IC50 in assay [1] (Poly IC-induced TLR3 activation, cell assay) amounted to 154 ± 5.9 µM; in assay [1] (setting [3]), 154 ± 6 µM.
`O=C(O)[C@H](Cc1ccccc1)NS(=O)(=O)c1ccc(F)cc1` [Compound 16b, (S)-2-(4-fluorophenylsulfonamido)-3-phenylpropanoic acid] had an IC50 in assay [1] (setting [4]) above 100 µM.
Compound `O=C(N[C@H](Cc1ccccc1)C(=O)O)c1sc2cc(C(F)(F)F)ccc2c1Cl` [Compound 5a, (R)-2-(3-chloro-6-(trifluoromethyl)benzo[b]thiophene-2-carboxamido)-3-phenylpropanoic acid] yielded an IC50 in assay [1] (setting [3]) of 6.28 ± 1.05 µM.
